What all share (assay type): binding
For one assay, the target named is T1, SnRK2.6 (Arabidopsis thaliana, UniProt Q940H6).
T1 construct: gene SRK2E; full length, recombinant from E. coli; untagged in TSA, H6GST fusion in kinase assay
T1 sequence (Q940H6 1-362): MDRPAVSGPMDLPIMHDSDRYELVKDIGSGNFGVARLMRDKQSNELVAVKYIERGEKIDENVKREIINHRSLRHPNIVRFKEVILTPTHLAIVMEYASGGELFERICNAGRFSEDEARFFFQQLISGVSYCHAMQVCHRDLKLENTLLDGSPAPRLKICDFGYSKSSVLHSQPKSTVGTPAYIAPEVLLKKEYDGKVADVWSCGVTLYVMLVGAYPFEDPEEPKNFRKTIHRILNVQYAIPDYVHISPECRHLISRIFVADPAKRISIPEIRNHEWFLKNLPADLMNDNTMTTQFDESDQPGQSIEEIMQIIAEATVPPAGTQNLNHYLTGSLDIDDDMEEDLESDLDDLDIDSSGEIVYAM
Description: thermal shift (SYPRO Orange). As to conditions: 50 µM compound, 5 µM kinase.

For the next assay, the target named is T2, SnRK2.3 (Arabidopsis thaliana, UniProt Q39193).
T2 construct: gene SRK2I; full length, recombinant from E. coli; untagged and as N-terminal MBP fusion (NAAAEF linker)
T2 sequence (Q39193 1-361): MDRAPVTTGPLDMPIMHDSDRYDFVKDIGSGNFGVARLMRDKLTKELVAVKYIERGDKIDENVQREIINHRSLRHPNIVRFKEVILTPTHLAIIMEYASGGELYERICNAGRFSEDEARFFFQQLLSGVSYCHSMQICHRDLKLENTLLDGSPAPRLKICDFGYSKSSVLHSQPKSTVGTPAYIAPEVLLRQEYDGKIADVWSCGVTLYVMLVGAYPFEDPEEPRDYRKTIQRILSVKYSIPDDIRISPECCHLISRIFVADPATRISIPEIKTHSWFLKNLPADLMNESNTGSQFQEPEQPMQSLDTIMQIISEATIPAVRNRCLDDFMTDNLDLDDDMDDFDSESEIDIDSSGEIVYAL
The assay is described as follows: thermal shift (SYPRO Orange). As to conditions: 50 µM compound, 5 µM kinase.

The target of the next assay is T3, SnRK2.2 (Arabidopsis thaliana, UniProt Q39192).
T3 construct: gene SRK2D
T3 sequence (Q39192 1-362): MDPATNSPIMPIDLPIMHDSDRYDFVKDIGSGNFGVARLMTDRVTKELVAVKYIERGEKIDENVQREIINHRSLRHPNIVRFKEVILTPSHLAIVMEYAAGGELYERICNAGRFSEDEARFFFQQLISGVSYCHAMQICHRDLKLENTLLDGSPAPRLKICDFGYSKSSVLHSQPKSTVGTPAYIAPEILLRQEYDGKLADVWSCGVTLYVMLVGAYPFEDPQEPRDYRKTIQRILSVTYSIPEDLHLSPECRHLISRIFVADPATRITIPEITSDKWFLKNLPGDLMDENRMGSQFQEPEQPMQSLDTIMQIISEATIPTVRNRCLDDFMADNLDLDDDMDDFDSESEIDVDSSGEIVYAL
Description: thermal shift (SYPRO Orange). As to conditions: 50 µM compound.

For assay [1], the target named is T4, PYL1/HAB1 coreceptor complex (Arabidopsis thaliana, UniProt Q8VZS8).
T4 construct: H6GST-PYL1 on SPA beads plus HAB1 (172-511), both from E. coli; 1:1 complex; with Protein phosphatase 2C 16
T4 sequence (Q8VZS8 36-211): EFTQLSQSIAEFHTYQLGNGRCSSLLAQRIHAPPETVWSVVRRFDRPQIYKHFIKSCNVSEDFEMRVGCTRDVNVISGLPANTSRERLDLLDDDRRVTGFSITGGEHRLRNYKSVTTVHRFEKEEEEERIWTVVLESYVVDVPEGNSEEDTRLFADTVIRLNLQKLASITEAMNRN
T4 sequence (Q9CAJ0 172-511 partner): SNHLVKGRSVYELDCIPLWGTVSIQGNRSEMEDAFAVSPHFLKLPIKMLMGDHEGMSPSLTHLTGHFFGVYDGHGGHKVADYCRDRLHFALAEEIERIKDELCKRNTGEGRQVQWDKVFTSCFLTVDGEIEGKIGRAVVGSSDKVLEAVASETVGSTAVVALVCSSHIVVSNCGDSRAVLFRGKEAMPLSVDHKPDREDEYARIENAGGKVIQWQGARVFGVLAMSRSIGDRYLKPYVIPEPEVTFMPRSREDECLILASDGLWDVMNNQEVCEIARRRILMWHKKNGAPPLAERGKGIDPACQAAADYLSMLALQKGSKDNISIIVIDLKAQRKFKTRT
Description: radioligand competition (SPA, 3H-ABA). As to conditions: 450 nM 3H-ABA, 10 µM HAB1, MOPS pH 7.4, room temperature; curve only in figure.

In the next assay the target is T5, PYL2 (Arabidopsis thaliana, UniProt O80992).
T5 construct: residues 14-188, recombinant from E. coli, receptor alone without PP2C; dimeric
T5 sequence (O80992 14-188): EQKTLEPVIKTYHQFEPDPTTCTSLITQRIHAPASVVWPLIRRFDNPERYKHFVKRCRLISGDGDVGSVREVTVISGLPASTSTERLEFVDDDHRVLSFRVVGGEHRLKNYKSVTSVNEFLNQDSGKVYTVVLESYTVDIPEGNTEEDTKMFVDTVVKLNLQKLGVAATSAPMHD
The assay is described as follows: thermal shift (SYPRO Orange). As to conditions: 500 µM pyrabactin, no PP2C; apo Tm not derivable.

In the case of `O=C1NC(=O)c2c1c(-c1ccccc1Cl)cc1[nH]c3ccc(O)cc3c21` [Wee1 inhibitor], the dTm on SnRK2.6, at SnRK2.3 and on SnRK2.2 was greater than 3 °C in each case.
Consider `O=S(=O)(NCc1ccccn1)c1ccc(Br)c2ccccc12` [pyrabactin], for which, in assay [1], the “radioligand competition (SPA, 3H-ABA)” value was “Competition of the interactions between ^3H-ABA and the PYL1/HAB1 (A)”. For the same molecule, on PYL2, the “thermal shift (SYPRO Orange)” value is recorded as “suggesting that pyrabactin directly binds PYL2, but with an affinity that is lower”.
